# Measurements: patent US8455510B2
# Where two headings read alike, the source gives them in different places.
# Columns and labels:
# [1] = Immunosuppressive activity assay: cytotoxicity; format: cell-based
# [2] = tested on: normal mouse spleen B lymphocytes induced by LPS; experiment: 3H-TdR incorporation, LPS-induced B lymphocyte proliferation; format: cell-based, BALB/c mice; settings: read-out: IC50, proliferation of B lymphocytes induced by LPS
# Protocol: ^3H-thymidine incorporation was adopted to measure the effect of the in vitro administered compound on the proliferation function of the spleen lymphocytes of normal mice induced by a mixed culture of mitogen/allogeneic mouse spleen lymphocytes, and evaluate the in vitro immunosuppressive activity of the compound.
# Measurement of the effects of compounds on the proliferation function of mouse spleen lymphocytes induced by mitogen by ^3H-TdR incorporation: 100 μl cell suspension of mouse spleen lymphocytes was inoculated on a 96-well plate (4×10^5 per well), followed by addition of 50 μl of ConA (final concentration: 5 μg/ml), 50 μl of LPS (final concentration: […]) or 50 μl of compound at different concentrations. The total volume of each well was 200 μl. The test was carried out in triplicate wells for each concentration, and included control wells without ConA/LPS or the compound. After the 96-well plate was placed in an incubator at 37° C. with 5% CO2 for 48 hours, 25 μl of ^3H-thymidine (10 μCi/ml) was added in each well 8 hours before the end of incubation. […] The amount of ^3H-TdR incorporated in cell DNA was determined by a Beta cell counter (MicroBeta Trilux, PerkinElmer), and the cell proliferation was represented as a cpm value.
# [3] = tested on: SRBC-induced specific antibody-producing cells in spleen lymphocytes; experiment: Quantitative hemolysis of sheep red blood cells (QHS) assay; format: in vivo, BALB/c mice; settings: 1.5 mg/kg, intraperitoneal injection; for Quantitative hemolysis OD Value: model control 0.3887, normal control 0.3036
# Source text: It is a classic experimental method to determine the generation of antigen-specific antibody with SRBC hemolytic reaction in SRBC-induced mouse humoral immunity model. The quantitative hemolysis of sheep red blood cells (QHS) assay is an experimental method for evaluating the amount of the antibody secreted, which is based on the principle that the sheep red blood cells are hemolyzed by the anti-SRBC specific antibody secreted by B lymphocytes (plasma cells) to release haemoglobin. After mice are sensitized by sheep red blood cells (SRBC), there will appear cells which can secrete specific antibody in mouse spleen lymphocytes. The Antibody secreted by such cells could hemolyze SRBC with the synergistic action of the complement. Therefore, the amount of the cells secreting the specific antibody can be evaluated by determining the hemolytic degree by spectrophotometry. […] BALB/c mice were randomly divided into 5 groups with 6 mice in each group. […] When immunized, the mice in each group were administered by intraperitoneal injection once daily until 5 days after the immunization. The mice in model control group were administered daily with the solvent. 2. […] Each mice was introperitoneally injected with 0.2 ml of the diluted SRBC for sensitizing. 3. QHS assay was carried out 5 days after the sensitization: The mouse spleen was collected to produce the spleen lymphocytes. […] The mixture was kept at 37° C. for 1 hour, and then centrifugated at 3000 rpm for 10 min. […] The quantitative hemolysis of sheep red blood cells (QHS) assay uses the amount of haemoglobin (OD value) released from the hemolysis of red blood cells by the antibody secreted by B cells to indicate the level of humoral immunity in body. Inhibition of specific antibody-secreting cells %=(OD of model control group-OD of administration group)/(OD of model control group-OD of normal control group)
# [4] = tested on: human osteosarcoma U2SO xenograft; experiment: U2SO xenograft on nude mice; settings: 1-5/3 w; for TV (mm^3) d0: baseline
# [5] = tested on: human rhabdomyosarcoma RH-30 xenograft; experiment: RH-30 xenograft on nude mice; settings: for TV (mm^3) d0: baseline;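 as to all read-outs here: male BALB/cA nude mice with subcutaneous RH-30 tumors, oral dosing versus solvent-fed controls, caliper tumor volume, RTV relative to grouping day, T/C as treated RTV over control RTV ×100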
# Source text: Animals: BALB/cA nude mice, male, 40-45 days old, body weight: 21±2 g, provided by Shanghai Institute of Materia Medica, Chinese Academy of Sciences. License No.: SCXK (Shanghai) 2004-0002. Animal number in each group: 6 in negative control group, and 6 in administration group.
# The amount of inoculated cells was 5×10^6. After the xenograft was formed by inoculation, it was used after passed for 3 generations in nude mice.
# [6] = Table 10, read-out: Cytotoxicity CC50
# [7] = Table 2, 5 mg/kg p.o, 1-5 × 3 w
# [8] = Table 2, 10 mg/kg p.o, 1-5 × 3 w
Compound,"CC50 [1, 6] [µM]",Inhibition of Specific Antibody-secreting cells % [3] [%],Quantitative hemolysis OD Value [3],"Body Weight (g) end ([4]; Table 5, oral 2.5 mg/kg) [g]","Body Weight (g) start ([4]; Table 5, oral 2.5 mg/kg) [g]","RTV ([4]; Table 5, oral 2.5 mg/kg)","T/C (%) ([4]; Table 5, oral 2.5 mg/kg)","TV (mm^3) d21 ([4]; Table 5, oral 2.5 mg/kg) [mm^3]","TV (mm^3) d0 ([4]; Table 5, oral 2.5 mg/kg) [mm^3]","Body Weight (g) end ([4]; Table 5, oral 5 mg/kg) [g]","Body Weight (g) start ([4]; Table 5, oral 5 mg/kg) [g]","RTV ([4]; Table 5, oral 5 mg/kg)","T/C (%) ([4]; Table 5, oral 5 mg/kg)","TV (mm^3) d0 ([4]; Table 5, oral 5 mg/kg) [mm^3]","Body Weight (g) end ([5]; Table 4, 2.5 mg/kg po, 1-5/2 w) [g]","Body Weight (g) start ([5]; Table 4, 2.5 mg/kg po, 1-5/2 w) [g]","RTV ([5]; Table 4, 2.5 mg/kg po, 1-5/2 w)","T/C (%) ([5]; Table 4, 2.5 mg/kg po, 1-5/2 w)","TV (mm^3) d14 ([5]; Table 4, 2.5 mg/kg po, 1-5/2 w) [mm^3]","TV (mm^3) d0 ([5]; Table 4, 2.5 mg/kg po, 1-5/2 w) [mm^3]",also measured
CO[C@H]1C[C@@H]2CC[C@@H](C)[C@@](O)(O2)C(=O)C(=O)N2CCCC[C@H]2C(=O)O[C@H]([C@H](C)C[C@@H]2CC[C@@H](OC(=O)OCC(O)CO)[C@H](OC)C2)CC(=O)[C@H](C)/C=C(\C)[C@@H](O)[C@@H](OC)C(=O)[C@H](C)C[C@H](C)/C=C/C=C/C=C/1C (some centres unmarked) [Y31],93,93.03,0.3095,20.2,18.5,12 ± 6.7,49.0,975 ± 235,90 ± 27,19.5,17.7,11 ± 7.2,44.0,89 ± 19,21.2,19.2,1.6 ± 0.6,37.1,259 ± 130,159 ± 36,"Safety Index CC50/IC50 ([1]; Table 10): 1860.0; IC50 ([2]; LPS, 48 hours, 3H-TdR): 0.0978 µM; TV (mm^3) d21 ([4]; Table 5, oral 5 mg/kg): 967 ± 234 mm^3; Body Weight (g) end ([5]; Table 4, 5 mg/kg po, 1-5/2 w): 21.7 g; Body Weight (g) start ([5]; Table 4, 5 mg/kg po, 1-5/2 w): 20.8 g; RTV ([5]; Table 4, 5 mg/kg po, 1-5/2 w): 2.0 ± 0.5; T/C (%) ([5]; Table 4, 5 mg/kg po, 1-5/2 w): 45.5%; TV (mm^3) d14 ([5]; Table 4, 5 mg/kg po, 1-5/2 w): 316 ± 153 mm^3; TV (mm^3) d0 ([5]; Table 4, 5 mg/kg po, 1-5/2 w): 160 ± 53 mm^3"
CO[C@H]1C[C@@H]2CC[C@@H](C)[C@@](O)(O2)C(=O)C(=O)N2CCCC[C@H]2C(=O)O[C@H]([C@H](C)C[C@@H]2CC[C@@H](O)[C@H](OC)C2)CC(=O)[C@H](C)/C=C(\C)[C@@H](O)[C@@H](OC)C(=O)[C@H](C)C[C@H](C)/C=C/C=C/C=C/1C [Rapamycin],> 100,100,0.3012,18.5,19.7,15 ± 5.1,60.0,1230 ± 344,85 ± 24,17.5,19.5,15 ± 3.4,59.0,86 ± 20,21.8,20.2,2.8 ± 0.8,63.7,440 ± 157,164 ± 67,"CC50 ([1]; Table 10, value beyond the >100 μM bound, read-out: Cytotoxicity CC50, value in brackets): 3600 µM; IC50 [2]: 0.0488 µM; Body Weight (g) end [5, 7]: 27.0 g; Body Weight (g) start [5, 7]: 23.7 g; RTV [5, 7]: 5.5 ± 1.8; T/C (%) [5, 7]: 61.8%; TV (mm^3) d21 [5, 7]: 650 ± 326 mm^3; TV (mm^3) d0 [5, 7]: 124 ± 65 mm^3; Body Weight (g) end [5, 8]: 25.7 g; Body Weight (g) start [5, 8]: 23.3 g; RTV [5, 8]: 3.1 ± 0.7; T/C (%) [5, 8]: 35.7%; TV (mm^3) d0 [5, 8]: 136 ± 57 mm^3; Body Weight (g) end ([5]; Table 4, 5 mg/kg po, 1-5/2 w): 20.3 g; Body Weight (g) start ([5]; Table 4, 5 mg/kg po, 1-5/2 w): 19.8 g; RTV ([5]; Table 4, 5 mg/kg po, 1-5/2 w): 2.4 ± 1.0; T/C (%) ([5]; Table 4, 5 mg/kg po, 1-5/2 w): 54.4%; TV (mm^3) d14 ([5]; Table 4, 5 mg/kg po, 1-5/2 w): 362 ± 100 mm^3; TV (mm^3) d0 ([5]; Table 4, 5 mg/kg po, 1-5/2 w): 159 ± 32 mm^3"
